Test results from the supplement of paper PMC10307832.

Assays:
Test in all cases: relative viability (nuclei count vs DMSO), 5 days (fraction); higher = more cells survive
[1] = compound: Cn1c(Nc2ccc(C(F)(F)F)cc2)nc2cc(Oc3ccnc(-c4ncc(C(F)(F)F)[nH]4)c3)ccc21 [RAF265] + CC1(C)CCC(c2ccc(Cl)cc2)=C(CN2CCN(c3ccc(C(=O)NS(=O)(=O)c4ccc(N[C@H](CCN5CCOCC5)CSc5ccccc5)c(S(=O)(=O)C(F)(F)F)c4)cc3)CC2)C1 [Navitoclax] (partner 0.5 µM)
Procedure, shortened: (§1)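 Lung cancer cell lines in 1536-well plates got either a single drug or a fixed anchor-drug dose together with five library-drug doses (not always all listed) in √10 steps, by pin tool, on the day after seeding. Nuclei were counted after 5 days, and relative viability is the treated-to-vehicle ratio of nuclei counts. Values are medians of duplicate plates.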

[2] = compound: Cc1ccc(-n2nc(C(C)(C)C)cc2NC(=O)Nc2ccc(OCCN3CCOCC3)c3ccccc23)cc1 [Doramapimod] + Cc1cc(Nc2cc(N3CCN(C)CC3)nc(Sc3ccc(NC(=O)C4CC4)cc3)n2)n[nH]1 [Tozasertib] (partner 0.1 µM)
Procedure, shortened: as §1

[3] = compound: Cc1ccc(-n2nc(C(C)(C)C)cc2NC(=O)Nc2ccc(OCCN3CCOCC3)c3ccccc23)cc1 [Doramapimod] + CC(C)C[C@H](NC(=O)[C@H](Cc1ccccc1)NC(=O)c1cnccn1)B(O)O [Bortezomib] (partner 0.002 µM)
Procedure, shortened: as §1

[4] = compound: Cn1c(Nc2ccc(C(F)(F)F)cc2)nc2cc(Oc3ccnc(-c4ncc(C(F)(F)F)[nH]4)c3)ccc21 [RAF265] + Nc1nc2[nH]cc(CCc3ccc(C(=O)N[C@@H](CCC(=O)O)C(=O)O)cc3)c2c(=O)[nH]1 [Pemetrexed] (partner 0.2 µM)
Procedure, shortened: as §1

Cell Line | relative viability ([1]; first compound 0.01 µM) | relative viability ([1]; first compound 0.03162 µM) | relative viability ([1]; first compound 0.1 µM) | relative viability ([1]; first compound 0.3162 µM) | relative viability ([1]; first compound 1 µM) | relative viability ([2]; first compound 0.02 µM) | relative viability ([2]; first compound 0.06325 µM) | relative viability ([2]; first compound 0.2 µM) | relative viability ([2]; first compound 0.6325 µM) | relative viability ([2]; first compound 2 µM) | relative viability ([3]; first compound 0.02 µM) | relative viability ([3]; first compound 0.06325 µM) | relative viability ([3]; first compound 0.2 µM) | relative viability ([3]; first compound 0.6325 µM) | relative viability ([3]; first compound 2 µM) | relative viability ([4]; first compound 0.01 µM) | relative viability ([4]; first compound 0.03162 µM) | relative viability ([4]; first compound 0.1 µM) | relative viability ([4]; first compound 0.3162 µM) | relative viability ([4]; first compound 1 µM)
LU99A | 0.703 | 0.688 | 0.613 | 0.514 | 0.325 | 0.307 | 0.248 | 0.294 | 0.252 | 0.264 | 1.03 | 1.15 | 1.12 | 1.15 | 0.922 | 0.199 | 0.186 | 0.161 | 0.177 | 0.241
BEN | 0.0592 | 0.0731 | 0.0721 | 0.0801 | 0.0649 | 0.533 | 0.402 | 0.499 | 0.325 | 0.429 | 0.69 | 0.785 | 0.896 | 0.52 | 0.684 | 0.795 | 0.835 | 0.99 | 0.798 | 0.692
SK-LU-1 | 1.41 | 0.682 | 0.718 | 0.744 | 0.273 | 0.348 | 0.41 | 0.314 | 0.347 | 0.277 | 1.41 | 1.37 | 1.51 |  | 1.15 | 0.893 | 0.838 | 0.711 | 0.544 | 0.435
NCI-H1975 | 1.17 | 0.812 | 0.912 | 0.528 | 0.324 | 0.802 | 0.729 | 0.937 | 0.817 | 0.639 | 0.321 | 0.324 | 0.266 | 0.363 | 0.327 | 0.307 | 0.256 | 0.234 | 0.203 | 0.19
RERF-LC-KJ | 1.08 | 0.95 | 0.851 | 0.747 | 0.841 | 0.506 | 0.535 | 0.609 | 0.516 | 0.498 | 1.19 | 1.05 | 1.29 | 1.07 | 1.04 | 0.504 | 0.482 | 0.503 | 0.46 | 0.51
NCI-H441 | 0.582 |  | 0.515 | 0.5 | 0.776 | 0.719 | 0.63 | 0.576 |  | 0.622 | 0.308 |  | 0.522 | 0.362 | 0.266 | 0.267 | 0.251 | 0.258 | 0.223 | 0.224
HCC-78 | 0.898 | 0.901 | 0.912 | 0.726 | 0.731 | 0.404 | 0.537 | 0.291 | 0.471 | 0.402 | 0.334 | 0.49 | 0.432 | 0.642 | 0.457 | 0.906 | 0.844 | 0.884 | 0.881 | 0.898
NCI-H1915 | 0.76 | 0.72 | 0.712 | 0.407 | 0.281 | 0.438 | 0.464 | 0.489 | 0.459 | 0.384 | 0.978 | 1.09 | 1.04 | 1.02 | 0.936 | 0.463 | 0.419 | 0.486 | 0.406 | 0.361
